{
  "source": "patent US20060069132A1",
  "about": "“Azolecarboxamide herbicides” (priority 2004, published 2006)",
  "key": {"Surinam grass": {"tested_on": "Surinam grass", "test": "Test B pre-/postemergence herbicide test", "assay_type": "in vivo, Urochloa decumbens", "conditions": "for Surinam Grass plant response rating: postemergence, visual rating, scale 0 (no effect) to 100 (complete control)", "summary_of_the_method": "(§1)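 Seeds were planted and treated preemergence with compounds formulated in a non-phytotoxic solvent mixture containing surfactant, while plants at the 1- to 4-leaf stage (2 to 18 cm) received postemergence sprays. Flooded paddy plants were grown to the 2-leaf stage. After 13 to 15 days in a greenhouse, injury was visually rated 0–100 against untreated controls.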"}, "velvetleaf": {"tested_on": "velvetleaf", "test": "Test B pre-/postemergence herbicide test", "assay_type": "in vivo, Abutilon theophrasti", "conditions": "for Velvetleaf plant response rating: postemergence, visual rating, scale 0 (no effect) to 100 (complete control)", "summary_of_the_method": "as §1"}, "corn": {"tested_on": "corn", "test": "Test B pre-/postemergence herbicide test", "assay_type": "in vivo, Zea mays", "conditions": "for Corn plant response rating: postemergence, visual rating, scale 0 (no effect) to 100 (complete control)", "summary_of_the_method": "as §1"}, "pigweed": {"tested_on": "pigweed", "test": "Test B pre-/postemergence herbicide test", "assay_type": "in vivo, Amaranthus retroflexus", "conditions": "for Pigweed plant response rating: postemergence, visual rating, scale 0 (no effect) to 100 (complete control)", "summary_of_the_method": "as §1"}, "barnyardgrass [1]": {"tested_on": "barnyardgrass", "test": "Test B flooded paddy test", "assay_type": "in vivo, Echinochloa crus-galli", "conditions": "1000 g ai/ha, visual rating, scale 0 to 100 (0 no effect, 100 complete control), 13 to 15 days", "summary_of_the_method": "(§2)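 Plants grow to 1- to 4-leaf stage (2–18 cm) for postemergence spraying, or to 2-leaf stage for the paddy test. Formulated compound is applied. Greenhouse holding lasts 13–15 days. Response is scored visually relative to controls, 0 no effect to 100 complete control; a dash means no result.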"}, "ducksalad": {"tested_on": "ducksalad", "test": "Test B flooded paddy test", "assay_type": "in vivo, Heteranthera limosa", "conditions": "1000 g ai/ha, visual rating, scale 0 to 100 (0 no effect, 100 complete control), 13 to 15 days", "summary_of_the_method": "as §2"}, "blackgrass": {"tested_on": "blackgrass", "test": "Test B postemergence herbicide test", "assay_type": "in vivo, Alopecurus myosuroides", "conditions": "postemergence, visual rating, scale 0 (no effect) to 100 (complete control)", "summary_of_the_method": "as §2"}, "large crabgrass": {"tested_on": "large crabgrass", "test": "Test B pre-/postemergence herbicide test", "assay_type": "in vivo, Digitaria sanguinalis", "conditions": "for Crabgrass, Large plant response rating: postemergence, visual rating, scale 0 (no effect) to 100 (complete control)", "summary_of_the_method": "as §1"}, "giant foxtail": {"tested_on": "giant foxtail", "test": "Test B pre-/postemergence herbicide test", "assay_type": "in vivo, Setaria faberi", "conditions": "for Foxtail, Giant plant response rating: postemergence, visual rating, scale 0 (no effect) to 100 (complete control)", "summary_of_the_method": "as §1"}, "lambsquarters": {"tested_on": "lambsquarters", "test": "Test B pre-/postemergence herbicide test", "assay_type": "in vivo, Chenopodium album", "conditions": "for Lambsquarters plant response rating: postemergence, visual rating, scale 0 (no effect) to 100 (complete control)", "summary_of_the_method": "as §1"}, "rice [2]": {"tested_on": "rice", "test": "Test B flooded paddy test", "assay_type": "in vivo, Oryza sativa", "conditions": "1000 g ai/ha, visual rating, scale 0 to 100 (0 no effect, 100 complete control), 13 to 15 days", "summary_of_the_method": "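Visual ratings, 0 (no effect) to 100 (complete control), made versus controls after 13–15 d greenhouse. Paddy plants treated at 2-leaf stage; postemergence plants at 1- to 4-leaf stage, 2–18 cm tall.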"}, "[3]": {"tested_on": "small flower umbrella sedge", "test": "Test B flooded paddy test", "assay_type": "in vivo, Cyperus difformis", "conditions": "1000 g ai/ha, visual rating, scale 0 to 100 (0 no effect, 100 complete control), 13 to 15 days", "summary_of_the_method": "as §2"}, "morningglory": {"tested_on": "morningglory", "test": "Test B pre-/postemergence herbicide test", "assay_type": "in vivo, Ipomoea coccinea", "conditions": "for Morningglory plant response rating: postemergence, visual rating, scale 0 (no effect) to 100 (complete control)", "summary_of_the_method": "(§3)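 Species tested were Echinochloa crus-galli, Ipomoea coccinea, Xanthium strumarium and Oryza sativa, treated both before emergence and at the 1- to 4-leaf stage; rice and barnyardgrass were also tested under flooding at 2 leaves. Greenhouse incubation lasted 13–15 days before visual 0–100 scoring.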"}, "barnyardgrass [4]": {"tested_on": "barnyardgrass", "test": "Test B pre-/postemergence herbicide test", "assay_type": "in vivo, Echinochloa crus-galli", "conditions": "for Barnyardgrass plant response rating: postemergence, visual rating, scale 0 (no effect) to 100 (complete control)", "summary_of_the_method": "as §3"}, "wild oat": {"tested_on": "wild oat", "test": "Test B postemergence herbicide test", "assay_type": "in vivo, Avena fatua", "conditions": "postemergence, visual rating, scale 0 (no effect) to 100 (complete control)", "summary_of_the_method": "(§4)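 Formulated test chemicals went onto postemergence plants measuring 2 to 18 cm, at one to four leaves. For the paddy assay, species had reached two leaves. Scoring took place 13–15 days later by eye, relative to untreated plants, using 0 for no effect up to 100 for full control.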"}, "rice [5]": {"tested_on": "rice", "test": "Test B pre-/postemergence herbicide test", "assay_type": "in vivo, Oryza sativa", "conditions": "preemergence", "summary_of_the_method": "as §1"}, "cocklebur": {"tested_on": "cocklebur", "test": "Test B pre-/postemergence herbicide test", "assay_type": "in vivo, Xanthium strumarium", "conditions": "for Cocklebur plant response rating: postemergence, visual rating, scale 0 (no effect) to 100 (complete control)", "summary_of_the_method": "as §3"}, "wheat": {"tested_on": "wheat", "test": "Test B postemergence herbicide test", "assay_type": "in vivo, Triticum aestivum", "design": "key to Wheat plant response rating: 0 = no effect, 100 = complete control", "conditions": "postemergence, visual rating, scale 0 (no effect) to 100 (complete control)", "summary_of_the_method": "as §4"}, "[6]": {"conditions": "125 g ai/ha, 0 = no effect, 100 = complete control, preemergence"}, "[7]": {"conditions": "500 g ai/ha, visual rating 0-100, 0 no effect, 100 complete control, preemergence"}},
  "data": [
    {"smiles": "CCCc1nn(C(C)(C)C)cc1C(=O)Nc1cccc(C(=O)N(CC)CC)c1", "note": "[Compound 185]", "values": [
      {"measurement": "Surinam Grass plant response rating (0 to 100 scale)", "setting": "Surinam grass; [6]", "result": 10},
      {"measurement": "Plant response rating, Surinam Grass", "setting": "Surinam grass; [7]", "result": 20},
      {"measurement": "Surinam Grass plant response rating", "setting": "Surinam grass; 125 g ai/ha", "result": 20},
      {"measurement": "Surinam Grass plant response rating", "setting": "Surinam grass; 500 g ai/ha", "result": 30},
      {"measurement": "Velvetleaf plant response rating (0 to 100 scale)", "setting": "velvetleaf; [6]", "result": 10},
      {"measurement": "Plant response rating, Velvetleaf", "setting": "velvetleaf; [7]", "result": 50},
      {"measurement": "Velvetleaf plant response rating", "setting": "velvetleaf; 125 g ai/ha", "result": 30},
      {"measurement": "Velvetleaf plant response rating", "setting": "velvetleaf; 500 g ai/ha", "result": 50},
      {"measurement": "Corn plant response rating (0 to 100 scale)", "setting": "corn; [6]", "result": 0},
      {"measurement": "Plant response rating, Corn", "setting": "corn; [7]", "result": 0},
      {"measurement": "Corn plant response rating", "setting": "corn; 125 g ai/ha", "result": 20},
      {"measurement": "Corn plant response rating", "setting": "corn; 500 g ai/ha", "result": 30},
      {"measurement": "Pigweed plant response rating (0 to 100 scale)", "setting": "pigweed; [6]", "result": 0},
      {"measurement": "Plant response rating, Pigweed", "setting": "pigweed; [7]", "result": 100},
      {"measurement": "Pigweed plant response rating", "setting": "pigweed; 125 g ai/ha", "result": 60},
      {"measurement": "Pigweed plant response rating", "setting": "pigweed; 500 g ai/ha", "result": 80},
      {"measurement": "Barnyardgrass plant response rating", "setting": "barnyardgrass [1]", "result": 0},
      {"measurement": "Ducksalad plant response rating", "setting": "ducksalad", "result": 0},
      {"measurement": "Blackgrass plant response rating", "setting": "blackgrass; 125 g ai/ha", "result": 0},
      {"measurement": "Blackgrass plant response rating", "setting": "blackgrass; 500 g ai/ha", "result": 0},
      {"measurement": "Crabgrass, Large plant response rating (0 to 100 scale)", "setting": "large crabgrass; [6]", "result": 0},
      {"measurement": "Plant response rating, Crabgrass, Large", "setting": "large crabgrass; [7]", "result": 50},
      {"measurement": "Crabgrass, Large plant response rating", "setting": "large crabgrass; 125 g ai/ha", "result": 20},
      {"measurement": "Crabgrass, Large plant response rating", "setting": "large crabgrass; 500 g ai/ha", "result": 40},
      {"measurement": "Foxtail, Giant plant response rating (0 to 100 scale)", "setting": "giant foxtail; [6]", "result": 0},
      {"measurement": "Plant response rating, Foxtail, Giant", "setting": "giant foxtail; [7]", "result": 70},
      {"measurement": "Foxtail, Giant plant response rating", "setting": "giant foxtail; 125 g ai/ha", "result": 20},
      {"measurement": "Foxtail, Giant plant response rating", "setting": "giant foxtail; 500 g ai/ha", "result": 30},
      {"measurement": "Lambsquarters plant response rating (0 to 100 scale)", "setting": "lambsquarters; [6]", "result": 20},
      {"measurement": "Plant response rating, Lambsquarters", "setting": "lambsquarters; [7]", "result": 80},
      {"measurement": "Lambsquarters plant response rating", "setting": "lambsquarters; 125 g ai/ha", "result": 60},
      {"measurement": "Lambsquarters plant response rating", "setting": "lambsquarters; 500 g ai/ha", "result": 70},
      {"measurement": "Rice plant response rating", "setting": "rice [2]", "result": 0},
      {"measurement": "Sedge, Umbrella plant response rating", "setting": "[3]", "result": 60},
      {"measurement": "Morningglory plant response rating (0 to 100 scale)", "setting": "morningglory; [6]", "result": 0},
      {"measurement": "Plant response rating, Morningglory", "setting": "morningglory; [7]", "result": 50},
      {"measurement": "Morningglory plant response rating", "setting": "morningglory; 125 g ai/ha", "result": 40},
      {"measurement": "Morningglory plant response rating", "setting": "morningglory; 500 g ai/ha", "result": 70},
      {"measurement": "Barnyardgrass plant response rating (0 to 100 scale)", "setting": "barnyardgrass [4]; [6]", "result": 0},
      {"measurement": "Plant response rating, Barnyardgrass", "setting": "barnyardgrass [4]; [7]", "result": 70},
      {"measurement": "Barnyardgrass plant response rating", "setting": "barnyardgrass [4]; 125 g ai/ha", "result": 30},
      {"measurement": "Barnyardgrass plant response rating", "setting": "barnyardgrass [4]; 500 g ai/ha", "result": 50},
      {"measurement": "Oat, Wild plant response rating", "setting": "wild oat; 125 g ai/ha", "result": 10},
      {"measurement": "Oat, Wild plant response rating", "setting": "wild oat; 500 g ai/ha", "result": 30},
      {"measurement": "Rice plant response rating (0 to 100 scale)", "setting": "rice [5]; 125 g ai/ha, 0 = no effect, 100 = complete control", "result": 0},
      {"measurement": "Plant response rating, Rice", "setting": "rice [5]; 500 g ai/ha, visual rating 0-100, 0 no effect, 100 complete control", "result": 0},
      {"measurement": "Cocklebur plant response rating (0 to 100 scale)", "setting": "cocklebur; [6]", "result": 0},
      {"measurement": "Plant response rating, Cocklebur", "setting": "cocklebur; [7]", "result": 0},
      {"measurement": "Cocklebur plant response rating", "setting": "cocklebur; 125 g ai/ha", "result": 20},
      {"measurement": "Cocklebur plant response rating", "setting": "cocklebur; 500 g ai/ha", "result": 50},
      {"measurement": "Wheat plant response rating", "setting": "wheat; 125 g ai/ha", "result": 0},
      {"measurement": "Wheat plant response rating", "setting": "wheat; 500 g ai/ha", "result": 10}
    ]}
  ]
}
